Values after ≈ are worked out from the molar mass of the structure shown. Values joined by “and” are separate entries in the source; they are usually repeats but may differ in a detail not shown here. Equal values may be shown once. Read-outs that look alike come from different tables or passages of the source. Marks after values point to notes of the source that are not given here.
Legend:
[1] = system: individual Aspergillus spp. (Table 15, species not named); assay: MFC determination, Table 15; type: cell-based; details: Aspergillus sp. of Table 15; for MFC50: kills 50% of strains; for MFC90: kills 90% of strains
[2] = system: Aspergillus fumigatus AF91; assay: Disseminated Aspergillosis in immunocompromised murine model (CD-1 mice): tissue fungal burden; details: 7 days
C. albicans SC5314 = assay: In vitro activity (MFC) against the infecting strain, Example 18; type: cell-based, Candida albicans; details: Candida albicans, read-out: MFC
[3] = system: Fusarium strains (Table 18); assay: MFC determination, Table 18; type: cell-based, Fusarium spp.; details: for MFC50: kills 50% of strains; for MFC90: kills 90% of strains
C. parapsilosis = assay: MFC determination; type: cell-based; details: for MFC Range: C. parapsilosis strains; for MFC50 / MFC90: C. parapsilosis; for MFC50: kills 50% of strains; for MFC90: kills 90% of strains; for MFC: individual C. parapsilosis strain with elevated MICs to non-polyene comparators (Table 22)
Fusarium strains = assay: MFC determination, Table 17; type: cell-based, Fusarium spp.; details: Fusarium strains (Table 17); for MFC Range: in µg/mL; for MFC50: kills 50% of strains; for MFC90: kills 90% of strains
C. krusei strains = assay: MFC determination; type: cell-based; details: for MFC Range: C. krusei strains, in µg/mL; for MFC50 / MFC90: C. krusei; for MFC50: kills 50% of strains; for MFC90: kills 90% of strains; for MFC: individual C. krusei strain with elevated MICs to non-polyene comparators (Table 22)
Cr. neoformans strains = assay: MFC determination; type: cell-based, Cryptococcus neoformans; details: for MFC50 / MFC90: Cr. neoformans; for MFC50: kills 50% of strains; for MFC90: kills 90% of strains
[4] = system: individual Aspergillus spp. (Table 13, species not given); assay: MFC determination, Table 13; type: cell-based; details: Aspergillus sp. of Table 13; for MFC50: kills 50% of strains; for MFC90: kills 90% of strains
A. fumigatus AF91 = assay: In vitro activity (MFC) against the infecting strain, Example 17; type: cell-based, Aspergillus fumigatus; details: Aspergillus fumigatus, read-out: MFC
Experimental: Minimum Fungicidal Concentration: MFC determinations were performed according to the modifications previously described by Canton et al., Diagn. Microbiol. Infect. Dis., 45:203-206, 2003, and Ghannoum and Isham, Infectious Diseases in Clinical Practice, 15(4):250-253, 2007.
Specifically, the total contents of each clear well from the MIC assay were subcultured onto potato dextrose agar. To avoid antifungal carryover, the aliquots were allowed to soak into the agar and then were streaked for isolation once dry, thus removing the cells from the drug source. Fungicidal activity is defined as ≥99.9% reduction in the number of colony forming units (CFU)/ml from the starting inoculum count, while fungistatic activity is defined as <99.9% reduction. […] MIC and MFC values are considered to be equivalent if they are within 2 dilutions.

Penicillium strains = assay: MFC determination; type: cell-based, Penicillium spp.; details: for MFC50: kills 50% of strains; for MFC90: kills 90% of strains
Candida albicans SC5314 = assay: Disseminated candidiasis in immunocompromised murine model (BALB/c mice): tissue fungal burden; type: in vivo; details: 7 days
[5] = system: Candida albicans ATCC 10231; assay: MIC50 growth inhibition assay of compositions (OD600), Example 12; type: cell-based; details: Candida albicans, concentration giving 50% growth inhibition, read-out: MIC50
Experimental: Efficacy of the compositions was determined using Minimum Inhibitory Concentration assays, and the concentration of active compound giving 50% growth inhibition of the indicator organism was reported (MIC50). The assay was performed in well plates with two (Müller-Hinton medium) or three parallel (M19-medium) cell cultures for each condition.
Cell Culture Medium: Müller-Hinton and M19 without NaCl.
Indicator Organism: Candida albicans ATCC 10231
Stock Solutions of the Active Compounds and Control: • Amphotericin B (USP): vacuum dried powder was dissolved in DMSO to 2.5 mg/mL giving a final concentration after inoculation of 2.5 μg/mL in the well with the highest concentration. • compound 1A (custom made): powder was dissolved in DMSO to 2.5 mg/mL giving a final concentration after inoculation of 2.5 μg/ml compound 1A in the well with the highest concentration. It is assumed that the batch is 70% pure. • Example 3 composition: the formulation was a suspension with 18 mg/mL nanoparticles. The suspension was diluted in a medium and C. albicans inoculum to a final concentration of 5 μg/mL of compound 1A and 130 μg/mL of […]. From this solution 10 dilutions were prepared giving 0.009 μg/ml compound 1A in the lowest concentration. • Empty poly(ethylbutyl cyanoacrylate) particles: empty poly(ethylbutyl cyanoacrylate) particles were used as a reference. The empty poly(ethylbutyl cyanoacrylate) was produced in the same manner as those in Examples 2 and 3, with the exception that they were prepared at pH 1, with vanillin concentration of 10% (w/w), and. The particles were diluted in the same manner as Example 3. The highest poly(ethylbutyl cyanoacrylate) concentration tested was 130 μg/mL.
Growth measurements were performed at OD600.

[6] = Solubility of Compound 1A in lipids, oils and acrylate monomers; type: physicochemical
Excerpt: In General, the Constituents of a PACA Particle Contains: • Aqueous phase: Brij L35, Kolliphor HS15 and HCl to adjust pH • Oil phase: acrylate monomer (ethyl hexylcyanoacrylate, ethyl butylcyanoacrylate, 1-heptyl cyanoacrylate, and 2-phenylethyl cyanoacrylate/butyl cyanoacrylate), Miglyol, vanillin, Compound 1A.
Lipid-based particles were investigated as a vehicle for Compound 1A.

Paecilomyces strains = assay: MFC determination; type: cell-based, Paecilomyces spp.; details: Paecilomyces strains (5)
[7] = Experiment II, 0.5 mg/kg i.v. daily
[8] = Experiment II, 1.0 mg/kg i.v. daily

C[C@@H]1[C@H](O)[C@@H](C)/C=C/C=C/C=C/C=C/C=C/C=C/C=C/[C@H](O[C@@H]2O[C@H](C)[C@@H](O)[C@H](N)[C@@H]2O)C[C@@H]2O[C@](O)(C[C@@H](O)[C@H](O)CC[C@@H](O)C[C@@H](O)C[C@@H](O)CC(=O)O[C@H]1C)C[C@H](O)[C@H]2C [Compound 1A]
MFC50 [1]: > 4 µg/mL
MFC90 [1]: > 4 µg/mL
Kidney tissue fungal burden, Mean log CFUs ± the standard deviation ([2]; Experiment I, 0.5 mg/kg i.v.): 3.16 ± 0.40 log CFUs
Lung tissue fungal burden, Mean log CFUs ± the standard deviation ([2]; Experiment I, 0.5 mg/kg i.v.): 3.46 ± 0.49 log CFUs
Kidney tissue fungal burden, Mean log CFUs ± the standard deviation ([2]; Experiment I, 1.0 mg/kg i.v.): 0.51 ± 1.02 log CFUs
Lung tissue fungal burden, Mean log CFUs ± the standard deviation ([2]; Experiment I, 1.0 mg/kg i.v.): 0.55 ± 1.10 log CFUs
Kidney tissue fungal burden, Mean log CFUs ± the standard deviation [2, 7]: 2.93 ± 0.73 log CFUs
Lung tissue fungal burden, Mean log CFUs ± the standard deviation [2, 7]: 2.75 ± 0.93 log CFUs
Kidney tissue fungal burden, Mean log CFUs ± the standard deviation [2, 8]: 1.16 ± 1.10 log CFUs
Lung tissue fungal burden, Mean log CFUs ± the standard deviation [2, 8]: 1.17 ± 1.15 log CFUs
MFC (C. albicans SC5314): 0.5 µg/mL (≈ 0.559 µM)
MFC50 [3]: 2 µg/mL (≈ 2.24 µM)
MFC90 [3]: > 4 µg/mL
MFC Range (C. parapsilosis; in µg/mL): 0.25-2
MFC50 (C. parapsilosis): 0.5 µg/mL (≈ 0.559 µM)
MFC90 (C. parapsilosis): 2 µg/mL (≈ 2.24 µM)
MFC (C. parapsilosis): 0.5 (2×) and 1
MFC Range (Fusarium strains): 1-4
MFC50 (Fusarium strains): 2 µg/mL (≈ 2.24 µM)
MFC90 (Fusarium strains): > 4 µg/mL
MFC Range (C. krusei strains): 0.5-2
MFC50 (C. krusei strains): 1 µg/mL (≈ 1.12 µM)
MFC90 (C. krusei strains): 2 µg/mL (≈ 2.24 µM)
MFC (C. krusei strains): 2 µg/mL (≈ 2.24 µM)
MFC50 (Cr. neoformans strains): 1 µg/mL (≈ 1.12 µM)
MFC90 (Cr. neoformans strains): > 4 µg/mL
MFC50 [4]: 2 µg/mL (≈ 2.24 µM)
MFC90 [4]: > 4 µg/mL
MFC (A. fumigatus AF91): 2 µg/mL (≈ 2.24 µM)
MFC50 (Penicillium strains): 2 µg/mL (≈ 2.24 µM)
MFC90 (Penicillium strains): 4 µg/mL (≈ 4.47 µM)
Brain tissue fungal burden, Mean log CFUs ± the standard deviation (Candida albicans SC5314; Experiment I, 0.35 mg/kg i.v.): 2.92 ± 1.21 log CFUs
Kidney tissue fungal burden, Mean log CFUs ± the standard deviation (Candida albicans SC5314; Experiment I, 0.35 mg/kg i.v.): 3.16 ± 1.41 log CFUs
Brain tissue fungal burden, Mean log CFUs ± the standard deviation (Candida albicans SC5314; Experiment I, 0.7 mg/kg i.v.): 3.59 ± 1.20 log CFUs
Kidney tissue fungal burden, Mean log CFUs ± the standard deviation (Candida albicans SC5314; Experiment I, 0.7 mg/kg i.v.): 2.66 ± 2.11 log CFUs
Brain tissue fungal burden, Mean log CFUs ± the standard deviation (Candida albicans SC5314; Experiment II, 0.35 mg/kg i.v.): 3.55 ± 1.26 log CFUs
Kidney tissue fungal burden, Mean log CFUs ± the standard deviation (Candida albicans SC5314; Experiment II, 0.35 mg/kg i.v.): 3.53 ± 0.63 log CFUs
Brain tissue fungal burden, Mean log CFUs ± the standard deviation (Candida albicans SC5314; Experiment II, 0.7 mg/kg i.v.): 2.97 ± 2.04 log CFUs
Kidney tissue fungal burden, Mean log CFUs ± the standard deviation (Candida albicans SC5314; Experiment II, 0.7 mg/kg i.v.): 2.99 ± 1.05^a,b log CFUs
MIC50 ([5]; ATCC10231, M19 medium): 0.18 µg/mL (≈ 0.201 µM)
MIC50 ([5]; ATCC10231, Müller-Hinton medium): 0.06 µg/mL (≈ 0.0671 µM)
solubility ([6]; in 1-heptyl cyanoacrylate and 2-phenylethyl cyanoacrylate/butyl cyanoacrylate): unable to dissolve
solubility ([6]; in the tested oils and lipids listed): None of the tested oils or lipids dissolved Compound 1A well
solubility ([6]; in trans-cinnamaldehyde): somewhat soluble

OC(Cn1cncn1)(Cn1cncn1)c1ccc(F)cc1F [Fluconazole, fluconazole]
MFC Range [1]: > 64 µg/mL
MFC50 [1]: > 64 µg/mL
MFC90 [1]: > 64 µg/mL
MFC (C. albicans SC5314): > 64 µg/mL
MFC Range [3]: > 32 µg/mL
MFC50 [3]: > 32 µg/mL
MFC90 [3]: > 32 µg/mL
MFC Range (C. parapsilosis; in µg/mL): >64
MFC50 (C. parapsilosis): > 64 µg/mL
MFC90 (C. parapsilosis): > 64 µg/mL
MFC (C. parapsilosis; in µg/mL): >64
MFC Range (Fusarium strains): >64
MFC50 (Fusarium strains): > 64 µg/mL
MFC90 (Fusarium strains): > 64 µg/mL
MFC Range (Paecilomyces strains): > 64 µg/mL
MFC Range (C. krusei strains): >64
MFC50 (C. krusei strains): > 64 µg/mL
MFC90 (C. krusei strains): > 64 µg/mL
MFC (C. krusei strains): > 64 µg/mL
MFC Range (Cr. neoformans strains; Cr. neoformans strains, in µg/mL): 2
MFC50 (Cr. neoformans strains): > 64 µg/mL
MFC90 (Cr. neoformans strains): > 64 µg/mL
MFC Range [4]: 64 µg/mL (≈ 209 µM)
MFC50 [4]: 64 µg/mL (≈ 209 µM)
MFC90 [4]: 64 µg/mL (≈ 209 µM)
MFC50 (Penicillium strains): > 64 µg/mL
MFC90 (Penicillium strains): > 64 µg/mL
Brain tissue fungal burden, Mean log CFUs ± the standard deviation (Candida albicans SC5314; Experiment I, 6 mg/kg i.v.): 1.28 ± 1.95 log CFUs
Kidney tissue fungal burden, Mean log CFUs ± the standard deviation (Candida albicans SC5314; Experiment I, 6 mg/kg i.v.): 3.87 ± 1.53 log CFUs

Reference: US20230138395A1, “PHARMACEUTICAL COMPOSITIONS OF A THERAPEUTIC POLYENE MACROLIDE AND METHODS OF THEIR USE” (priority 2020, published 2023)
